Source: the supplement of paper PMC3974653
Where a name gives a salt, the structure may show the parent alone.

Test system: MTT (mouse pheochromocytoma)
Test: IC50 of cell viability (ATP content)
Details: (24 or 48 h)
In short: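 The IC50 was fitted with a four-parameter logistic equation to normalised CellTiter-Glo ATP luminescence from MTT mouse pheochromocytoma cells. These cells, in white 1536-well plates, had been treated for 24 or 48 hrs with library compounds at 8 final concentrations between 0.5 nM and 46 µM, and luminescence was read after 15 minutes. Positive-control wells served as 100% and DMSO wells as 0%.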

| SMILES | IC50 of cell viability [µM] |
| --- | --- |
| C/C(=C(/CCOP(=O)(O)O)SC(=O)c1ccccc1)N(C=O)Cc1cnc(C)nc1N [Benfotiamine] | > 46 |
| CC(NNC(=O)c1ccccc1)c1ccccc1 (stereo not given) [Benmoxin] | > 46 |
| CCCCOc1cc(C(=O)OCCN(CC)CC)ccc1N [Benoxinate hydrochloride] | > 46 |
| O=C(CCCN1CCC(n2c(=O)[nH]c3ccccc32)CC1)c1ccc(F)cc1 [Benperidol] | > 46 |
| N[C@@H](CO)C(=O)NNCc1ccc(O)c(O)c1O [Benserazide hydrochloride] | > 46 |
| O=C([O-])c1ccc(NC(=O)[C@H](Cc2ccc(O)cc2)NC(=O)c2ccccc2)cc1 [Bentiromide] | > 46 |
| O=Cc1ccccc1 [Benzaldehyde] | > 46 |
| CN1[C@@H]2CC[C@H]1C[C@@H](OC(c1ccccc1)c1ccccc1)C2 [Benzatropina] | > 46 |
| O=C1CCC(c2ccccc2)(C2CCN(Cc3ccccc3)CC2)C(=O)N1 (stereo not given) [Benzetimidum] | > 46 |
| O=C(NO)c1ccccc1 [Benzhydroxamic acid] | > 46 |
| O=C(Cn1ccnc1[N+](=O)[O-])NCc1ccccc1 [Benznidazol] | > 46 |
| CCC1(c2ccccc2)C(=O)NC(=O)N(C(=O)c2ccccc2)C1=O (stereo not given) [Benzobarbital] | > 46 |
| CCOC(=O)c1ccc(N)cc1 [Benzocaine] | > 46 |
| Cc1cc(Nc2ccccc2C(=O)O)ccc1Cl [Benzoic acid, 2-[(4-chloro-3-methylphenyl)amino]-] | > 46 |
| O=C(c1ccccc1)C(O)c1ccccc1 (stereo not given) [Benzoin] | > 46 |
| CCCCNc1ccc(C(=O)OCCOCCOCCOCCOCCOCCOCCOCCOCCOC)cc1 [Benzonatate] | > 46 |
| O=C(c1ccccc1)c1ccccc1 [Benzophenone] | > 46 |
| O=C(OOC(=O)c1ccccc1)c1ccccc1 [Benzoyl peroxide] | > 46 |
| N[S+]([O-])(=O)C1=C(Cl)C=C2\N=C(\CSCC3=CC=CC=C3)N[S+]([O-])(=O)C2=C1 [Benzthiazide] | > 46 |
| CN1[C@@H]2CC[C@H]1CC(OC(c1ccccc1)c1ccccc1)C2.C[S+](=O)([O-])O (stereo not given in full) [Benztropine] | > 46 |
| CN(C)CCCOc1nn(Cc2ccccc2)c2ccccc12 [Benzydamine hydrochloride] | > 46 |
| OCc1ccccc1 [Benzyl alcohol] | > 46 |
| O=C(OCc1ccccc1)c1ccccc1 [Benzyl benzoate] | > 46 |
| N[S+](=O)([O-])c1cc2c(cc1Cl)N[C@H](Cc1ccccc1)N[S+]2(=O)[O-] [Benzylhydrochlorothiazide] | > 46 |
| Nc1ccc([S+](=O)([O-])NCc2ccccc2)cc1 [Benzylsulfamide] | > 46 |

| SMILES | IC50 of cell viability [µM] |
| --- | --- |
| COc1c(O)cc2c(c1O)[C@H]1O[C@@H](CO)[C@@H](O)[C@@H](O)[C@@H]1OC2=O.O [Bergenin monohydrate] | > 46 |
| CC(C)C[C@H](NC(=O)[C@@H](O)[C@H](N)Cc1ccccc1)C(=O)O.Cl [Bestatin hydrochloride] | > 46 |
| CNCCc1ccccn1.C[S+](=O)([O-])O [Betahistine mesylate] | > 46 |
| C[N+](C)(C)CC(=O)O [Betaine hydrochloride] | > 46 |
| CCC(=O)OCC(=O)C1(OC(=O)CC)C(C)CC2C3CCC4=CC(=O)C=CC4(C)C3(F)C(O)CC21C (stereo not given) [Betamethasone dipropionate] | > 46 |
| C[C@H]1C[C@H]2[C@@H]3CCC4=CC(=O)C=C[C@]4(C)[C@@]3(F)[C@@H](O)C[C@]2(C)[C@@]1(O)C(=O)CO [Betamethasone] | > 46 |
| NCCc1cc[nH]n1 [Betazole hydrochloride] | > 46 |
| C/N=C(\NCc1ccccc1)[NH2+]C.C/N=C(\NCc1ccccc1)[NH2+]C.O=S(=O)([O-])[O-] [Bethanidine Sulfate (2:1)] | > 46 |
| COc1ccc(CCNC[C@H](O)COc2cccc(C)c2)cc1OC [Bevantolol] | > 46 |
| CC(C)(Oc1ccc(CCNC(=O)c2ccc(Cl)cc2)cc1)C(=O)O [Bezafibrate] | > 46 |
| [H][C@](C)(O)[C@@]1([H])C(=O)[N@]2C(C([O-])=O)=C(SC3CN4C=NC=[N+]4C3)[C@@]([H])(C)C12[H] (stereo not given in full) [Biapenem] | > 46 |
| CNCCCCOc1ccccc1Cc1ccccc1 [Bifemelane] | > 46 |
| O=C(COCCOCCOCC(=O)Nc1c(I)cc(I)c(C(=O)O)c1I)Nc1c(I)cc(I)c(C(=O)O)c1I [Biliscopin] | > 46 |
| NCc1ccccc1Sc1ccccc1CO [Bipenamol hydrochloride] | > 46 |
| OC(CCN1CCCCC1)(c1ccccc1)C1CC2C=CC1C2 (stereo not given) [Biperiden] | > 46 |
| CC(=O)Oc1ccc(C(c2ccc(OC(C)=O)cc2)c2ccccn2)cc1 [Bisacodyl] | > 46 |
| C/C(=C(/CCOC(=O)c1ccccc1)SS/C(CCOC(=O)c1ccccc1)=C(\C)N(C=O)Cc1cnc(C)nc1N)N(C=O)Cc1cnc(C)nc1N [Bisbentiamine] | > 46 |
| [O]=[Bi][O]C(=O)[O][Bi]=[O] [Bismuth subcarbonate] | > 46 |
| O=C1[O][Bi]([OH])[O]c2ccccc21 [Bismuth subsalicylate] | > 46 |
| CC(C)NCC(O)COc1ccc(COCCOC(C)C)cc1 (stereo not given) [Bisoprolol hemifumarate salt] | > 46 |
| CC(C)NCC(O)COc1ccc(COCCOC(C)C)cc1.CC(C)NCC(O)COc1ccc(COCCOC(C)C)cc1.O=C(O)/C=C/C(=O)O (stereo not given) [Bisoprolol hemifumarate salt] | > 46 |
| CC(=O)Oc1ccc(C2(c3ccc(OC(C)=O)cc3)Oc3ccccc3NC2=O)cc1 [Bisoxatin Acetate] | > 46 |
| CC(C)(c1ccc(O)cc1)c1ccc(O)cc1 [Bisphenol A] | > 46 |
| [O-][S+](c1cc(Cl)cc(Cl)c1O)c1cc(Cl)cc(Cl)c1O [Bithionoloxide] | > 46 |
| S=C=Nc1ccc(N=C=S)cc1 [Bitoscanate] | > 46 |

| SMILES | IC50 of cell viability [µM] |
| --- | --- |
| Cc1c(N)nc([C@@H](CC(N)=O)NC[C@H](N)C(N)=O)nc1C(=O)N[C@H](C(=O)N[C@H](C)[C@H](O)[C@H](C)C(=O)N[C@@H](C(=O)NCCc1nc(-c2nc(C(=O)NCCC[S+](C)C)cs2)cs1)[C@H](C)O)[C@H](O[C@@H]1O[C@@H](CO)[C@@H](O)[C@H](O)[C@@H]1O[C@H]1O[C@H](CO)[C@H](O)[C@H](OC(N)=O)[C@@H]1O)c1c[nH]cn1 [Bleomycin Sulfate] | > 46 |
| OB(O)O [Boric acid] | > 46 |
| O=C(Nc1ccccc1-c1ccc(Cl)cc1)c1cccnc1Cl [Boscalid] | > 46 |
| COc1cc(Nc2c(C#N)cnc3cc(OCCCN4CCN(C)CC4)c(OC)cc23)c(Cl)cc1Cl [Bosutinib Methanoate] | > 46 |
| CC(C)(C)OC(=O)c1ncn2c1[C@@H]1CCCN1C(=O)c1c(Br)cccc1-2 [Bretazenil] | > 46 |
| CC[N+](C)(C)Cc1ccccc1Br.Cc1ccc(S(=O)(=O)[O-])cc1 [Bretylium tosylate] | > 46 |
| CCN[C@@H]1CN(CCCOC)[S+](=O)([O-])c2sc([S+](N)(=O)[O-])cc21 [Brinzolamide] | > 46 |
| O=C1c2ccccc2C(=O)C1c1ccc(Br)cc1 [Bromindione] | > 46 |
| CC(C)C(Br)C(=O)NC(N)=O (stereo not given) [Bromisovalum] | > 46 |
| O=C(CCCN1CCC(O)(c2ccc(Br)cc2)CC1)c1ccc(F)cc1 [Bromperidol] | > 46 |
| Cc1ccc2c(Br)cc(Br)c(O)c2n1 [Broquinaldol] | > 46 |
| CC1=NN=C2C\N=C(C3=CC=CC=C3Cl)/C4=C(SC(=C4)Br)[N]12 [Brotizolam] | > 46 |
| OC[C@H]1O[C@H](C[C@@H]1O)N2\C=C(Br)/C(=O)NC2=O [Broxuridina] | > 46 |
| CCOc1ccc(NC(=O)CC(C)O)cc1 (stereo not given) [Bucetin] | > 46 |
| CC(C)(S)C(=O)NC(CS)C(=O)O (stereo not given) [Bucillamine] | > 46 |
| CC(C)(S)C(=O)N[C@H](CS)C(=O)O [Bucillamine] | > 46 |
| CC(C)(C)c1ccc(CN2CCN([C@H](c3ccccc3)c3ccc(Cl)cc3)CC2)cc1 [Buclodin] | > 46 |
| CCC[C@@H]1O[C@@H]2C[C@@H]3[C@@H]4CC\C5=C\C(=O)\C=C/[C@@]5(C)[C@H]4[C@H](O)C[C@@]3(C)[C@]2(O1)C(=O)CO [Budesonide] | > 46 |
| CCCCOc1ccc(CC(=O)NO)cc1 [Bufexamac] | > 46 |
| COc1cc(OC)c(C(=O)CCCN2CCCC2)c(OC)c1 [Buflomedil hydrochloride] | > 46 |
| CN(C)CCc1c[nH]c2ccc(O)cc12 [Bufotenine] | > 46 |
| CCCCNc1cc(C(=O)O)cc([S+](N)(=O)[O-])c1Oc1ccccc1 [Bumetanide] | > 46 |
| Cc1cc(-n2nc3ccc(Cl)cc3n2)c(O)c(C(C)(C)C)c1 [Bumetrizole] | > 46 |
| COC12CCC3(CC1[C@](C)(O)C(C)(C)C)[C@H]1Cc4ccc(O)c5c4[C@@]3(CCN1CC1CC1)C2O5 (stereo not given in full) [Bupenorphine] | > 46 |
| C[C@H](NC(C)(C)C)C(=O)c1cccc(Cl)c1 [Bupropion hydrochloride] | > 46 |
